Results from patent US20060058398A1, “Medicinal compositions containing vitamin k's as nerve growth factor potentiator and utilization thereof” (Hisamitsu Pharmaceutical Co., Inc., priority 2002, published 2006).
Where two headings read alike, the source gives them in different places.

Experiments:
Format in all cases: cell-based
PCD12 cells [1] = test: Effect of each inhibitor on neurite elongation potentiated by vitamin K's; conditions: 10 μM PD98059 pretreatment, 48 hours incubation (FIG. 4)
Method: In order to study the action mechanism of vitamin K's, influence of MAPK kinase inhibitor (PD98059), protein kinase A (PKA) inhibitor, and protein kinase C (PKC) inhibitor (chelerythrine chloride) on the effects for potentiating neurite elongation of vitamin K's in PCD12 cells were studied. Pre-incubation of cells was carried out for 1 hour in the presence or in the absence of the inhibitor before treatment of NGF or vitamin K compound. After 48 hours of incubation, the ratio of cells having neurites was examined.

PCD12 cells [2] = system: PCD12 cells
Method: Cells (PCD12 cells) were harvested and plated on a complete medium of collagen-coating tissue incubation dish in the density of 1.3×10^4 cells/cm^2. After 24 hours, NGF (0-50 ng/ml) and 100 μg/ml (the maximum concentration wherein toxicity against PCD12 cells is not observed) of vitamin K1 or vitamin K2 (n=4) were added to the cells.

PCD12 cells [3] = test: Bioassay for neurite elongation (potentiation of NGF activity); conditions: for number of cells having neurites (morphological change): 100 μg/ml together with NGF (10 ng/ml) (FIG. 3); for effect of potentiating neurite elongation compared with the negative control group added with NGF 10 ng/ml: 100 μg/ml vitamin K, 48 hours incubation, ratio of cells having neurites (FIG. 1); for effect of potentiating neurite elongation in PCD12 cells: 100 μg/ml, in the presence of low dose of NGF (0-50 ng/ml) (FIG. 1)
Method: Cells (PCD12 cells) were harvested and plated on a complete medium of collagen-coating tissue incubation dish in the density of 1.3×10^4 cells/cm^2. […] After 48 hours of incubation, the ratio of cells having neurites was examined using a phase-contrast microscope under ×200 magnification. […] Each measurement in the data is the mean value calculated from examining random 6 […] duplicate experiments, whereby at least 100 cells/point was counted for calculation.

Compound | inhibition of the potentiation of vitamin K's (PCD12 cells [1]) | maximum concentration wherein toxicity against PCD12 cells is not observed (PCD12 cells [2]; rat) | number of cells having neurites (morphological change) (PCD12 cells [3]) | effect of potentiating neurite elongation compared with the negative control group added with NGF 10 ng/ml (PCD12 cells [3]) | effect of potentiating neurite elongation in PCD12 cells (PCD12 cells [3]) | maximum concentration wherein toxicity against PCD12 cells is not observed (PCD12 cells [2])
COc1cccc(-c2cc(=O)c3ccccc3o2)c1N [PD98059] | almost completely inhibited | – | – | – | – | –
CC1=C(C/C=C(\C)CCC[C@H](C)CCC[C@H](C)CCCC(C)C)C(=O)c2ccccc2C1=O [vitamin K1, phylloquinone] | – | 100 µg/mL | remarkably increased | about 1.8 times | confirmed | –
menaquinone [vitamin K2] | – | – | remarkably increased | about 2.4 times | confirmed | 100 µg/mL
